We go through 1 compound from patent US20130129675A1, “INTERFERON THERAPIES IN COMBINATION WITH BLOCKADE OF STAT3 ACTIVATION” (BOARD OF REGENTS, THE UNIVERSITY OF TEXAS SYSTEM, priority 2009, published 2013).

Holding throughout (format): cell-based, human
In experiment [1] the test system is STAT3 in HH, HuT78 and MJ CTCL lines. In words: STAT3 tyrosine 705 phosphorylation in CTCL lines. How it is done:
To determine whether IFN alpha and beta were able to selectively phosphorylate STAT3 in other cell types. Studies were conducted in a range of other biologically relevant cell types. In these experiments, cells were grown in media supplemented with 10% FBS, and then serum starved for 18 hours and exposed to various stimuli for 30 minutes.

A further experiment relates to HuT78 Cells. Briefly: Caspase-3 and PARP cleavage in HuT78 cells. As for the experimental part:
(§1) To determine whether IFN alpha and beta were able to selectively phosphorylate STAT3 in other cell types. Studies were conducted in a range of other biologically relevant cell types. In these experiments, cells were grown in media supplemented with 10% FBS, and then serum starved for 18 hours and exposed to various stimuli for 30 minutes. […] (FIG. 10), and induced caspase-3 and PARP cleavage in these cells (Table E5)
(§2) HH, HuT78 and MJ cells were treated with vehicle alone or WP1220 for 24 hours. Total caspase-3 and cleaved caspase-3 levels were measured in 15 ug lysates by a meso-Scale 2400 imager. Results represent means fold stimulations compared to the controls based on duplicate samples (+++++=15-25 fold; ++++=10-15 fold; +++=5-10 fold; =/−=less than 2 fold.

The next experiment concerns HH cells. Briefly: Caspase-3 and PARP cleavage in HH cells. How it is done: as §1, §2
Experiment [2] relates to STAT3 in HaCaT keratinocytes. Briefly: pSTAT3 level in HaCaT keratinocytes (MSD chemiluminescent detection). To be noted: pre-incubated. As for the experimental part:
Prior to experiments, the DMEM medium was changed to KGM-SFM containing rEGF and bovine pituitary extract for 12 hours, and the cells then exposed to various stimuli for 30 minutes. Cell lysates were extracted in IP lysis buffer were diluted in MSD extraction buffer and 25 uL of the cell lysate containing 10 ug protein was used in the analysis via chemiluminescent detection (MSD Technology). To test for inhibition by WP1220 (WP), cells were pre-incubated with WP1220 prior to the addition of IFN α.

The subject of another experiment is MJ cells. In words: Caspase-3 induction in MJ cells. To be noted: 10.0 uM, 24 hours. How it is done:
as §2

Experiment [3] relates to HuT78 and HH CTCL cell lines. Briefly: In vitro growth of CTCL cell lines.

Regarding `C[C@H](NC(=O)/C(C#N)=C/C=C/c1cccc(Br)n1)c1ccccc1` [WP1220, (2E,4E)-5-(6-bromopyridin-2-yl)-2-cyano-N—((S)-1-phenylethyl)penta-2,4-dienamide], in experiment [1] (HH cells), the “relative level of activated pSTAT3” value is on record as “time dependent decrease”. In experiment [1] (HH, HuT78, MJ cells (FIG. 8A, B)), the “constitutive and interferon stimulated phosphorylation of STAT3” value was “specifically blocked”. Moreover, the “Cleaved Caspase” value in the experiment with HuT78 Cells (5.0 uM), with HH cells (5.0 uM) and with HH cells (10.0 uM) was “++++ (++++=60,000-40,000)” each time. For the same compound, the “Cleaved PARP” value with HuT78 Cells (5.0 uM) is given as “++++ (++++=7,000-5,000)”; in the experiment with HuT78 Cells (10.0 uM), “+++ (+++=5,000-2000)”; in the experiment with HH cells (5.0 uM), “+++++ (+++++=10,000-7,000)”; in the experiment with HH cells (10.0 uM), “+++ (+++=5,000-2000)”. Also, the “induction of caspase-3 activity (fold stimulation compared to controls)” value with HuT78 Cells (10.0 uM, 24 hours) was “++++ (++++=10-15 fold)”; in the experiment with HH cells (10.0 uM, 24 hours) it was “+++++ (+++++=15-25 fold)”; in the experiment with MJ cells, “+++ (+++=5-10 fold)”. The “pSTAT3 signal remaining after WP1220 pre-incubation” value in experiment [2] (IFN α + WP 5 uM) is “+++ (+++=2,000-4,000)”; in experiment [2] (IFN α + WP 10 uM), “++ (++=2,000-1,500)”; in experiment [2] (IFN α + WP 20 uM) it was “+ (+=less than 1,500)”. Besides, in experiment [3], the in vitro growth entry is “potently inhibiting the in vitro growth”.
